In publication PMC5296967, “Binding affinity of five PBPs to Ostrinia sex pheromones” (BMC Molecular Biology, 2017):
Several values for one entry are separate records, joined by “and”; a condition that tells them apart may be missing. Equal entries are not always repeated. Entries after “also recorded” stand apart in the source; their conditions may differ.

Tests used:
[1] = target: OfurPBP3 mutant M1: I113N (Ostrinia furnacalis, UniProt E7CCA1, I135N); test: Competitive binding assay, OfurPBP3 mutant M1 I113N; conditions: for fold reduction in affinity compared to wild-type OfurPBP3: mutant I113N vs wildtype
Procedure: (§1) The 1-NPN probe was excited at 337 nm, and emission spectra were recorded between 380 and 450 nm on a Shimadzu fluorescence spectrophotometer (Shimadzu, Japan). Each trial was run in triplicate, and Scatchard plots of the ratio of bound to unbound ligand were created using Microsoft Excel 2010. Competitive binding assays were performed with each of the OfurPBPs using 1-NPN as the probe. Assay reactions were comprised of 2 µM of each OfurPBP diluted individually in 2.0 ml 20 mM Tris–HCl, pH 7.4, which were then titrated with 1.0 mM increments sex pheromone diluted in methanol to a final concentrations of 1–6 µM. The synthetic standards that correspond to the sex pheromones of O. furnacalis, O. nubilalis and other lepidopteran species were purchased from Sigma-Aldrich (Shanghai, China; Additional file 2: S2). Excitation and emission spectra were recorded from triplicate assays as described above. The binding affinity of each purified OfurPBP to the different sex pheromones was measured by calculation of binding constants via competitive fluorescence-binding assay. In brief, relative fluorescent intensities were analyzed by GraphPad Prism 5 software (GraphPad Software Inc, La Jolla, CA) and calculation was done using the equation: Ki = [IC50]/(1 + [1-NPN]/K1-NPN), where [1-NPN] is the free concentration of 1-NPN and K1-NPN is the dissociation constant of the complex protein/1-NPN [19, 20]. Sex pheromone binding affinity with different PBPs was analyzed using One-way ANOVA in SAS 8.0 (SAS Institute Inc., Cary, NC, USA).
(§2) Four amino acids of OfurPBP3 with some of the most negative estimated E total values were mutated using Quick-change lightning site-directed mutagenesis kit (Stratagene, La Jolla, CA, USA); Ile to Asn at position 113 ([…]), m2 Phe to Ser at position 12 (F12S), m3 Ile to Asn at position 52 (I52N), and m4 […] to Arg at position 94 (I94R). The sequence of each primers used to alter the aforementioned sites by nucleotide mismatch are shown in Additional file 3: S3. After initial denaturation at 94 °C for 5 min, the subsequent PCR followed with 30 cycles of 94 °C for 30 s, 56 °C for 30 s, and final extension at 72 °C for 1 min. Changes within site-directed mutant fragments were verified by cloning into the pGEM-T Easy vector (Promega) by Sanger sequencing. All mutated OfurPBPs proteins were expressed and used within in vitro binding assays as described above.

recombinant OfurPBP3 = recombinant OfurPBP3 (Ostrinia furnacalis, UniProt E7CCA1); test: Competitive fluorescence binding assay with 1-NPN probe, OfurPBP3 wild type; conditions: pH 7.4; for IC50 / Ki: OfurPBP3 wild type, mean ± SE, dash = undetectable interaction; for IC50: displacement of 1-NPN
Procedure: as §1

OfurPBP3 mutant M4: I94R = OfurPBP3 mutant M4: I94R (Ostrinia furnacalis, UniProt E7CCA1, L116R); test: Competitive binding assay, OfurPBP3 mutant M4 I94R
Procedure: as §1, §2

OfurPBP3 mutant M3: I52N = OfurPBP3 mutant M3: I52N (Ostrinia furnacalis, UniProt E7CCA1, I74N); test: Competitive binding assay, OfurPBP3 mutant M3 I52N
Procedure: as §1, §2

[2] = tested on: OfurPBP1, OfurPBP2, OfurPBP3, OfurPBP4 and OfurPBP5; test: Competitive binding assay, statements on all five OfurPBPs together; design: species or system Ostrinia furnacalis; conditions: pH 7.4
Procedure: as §1

recombinant OfurPBP2 = recombinant OfurPBP2 (Ostrinia furnacalis, UniProt E7CCA0); test: Competitive fluorescence binding assay with 1-NPN probe, OfurPBP2; conditions: dash = undetectable interaction; for IC50: pH 7.4, displacement of 1-NPN, mean ± SE; for Ki: pH 7.4, mean ± SE
Procedure: as §1

recombinant OfurPBP4 = recombinant OfurPBP4 (Ostrinia furnacalis, UniProt E7CCA2); test: Competitive fluorescence binding assay with 1-NPN probe, OfurPBP4; conditions: pH 7.4; for IC50 / Ki: OfurPBP4, mean ± SE, dash = undetectable interaction; for IC50: displacement of 1-NPN
Procedure: as §1

recombinant OfurPBP5 = recombinant OfurPBP5 (Ostrinia furnacalis, UniProt E7CCA3); test: Competitive fluorescence binding assay with 1-NPN probe, OfurPBP5; conditions: pH 7.4; for IC50 / Ki: OfurPBP5, mean ± SE, dash = undetectable interaction; for IC50: displacement of 1-NPN
Procedure: as §1

recombinant OfurPBP1 = recombinant OfurPBP1 (Ostrinia furnacalis, UniProt E7CC99); test: Competitive fluorescence binding assay with 1-NPN probe, OfurPBP1; conditions: mean ± SE, dash = undetectable interaction; for Ki: pH 7.4, Ki = [IC50]/(1 + [1-NPN]/K1-NPN); for IC50: pH 7.4, displacement of 1-NPN
Procedure: as §1

OfurPBP3 mutant M2: F12S = OfurPBP3 mutant M2: F12S (Ostrinia furnacalis, UniProt E7CCA1, F34S); test: Competitive binding assay, OfurPBP3 mutant M2 F12S
Procedure: as §1, §2

PBPLma = target: PBPLma; design: method as in PMID 12529170; conditions: read-out: binding affinities; cited from earlier work
[3] = tested on: OfurPBP3 mutants F12S, I52N, I94R, and I113N; test: Competitive binding assay, statements on all OfurPBP3 mutants together; design: species or system Ostrinia furnacalis; conditions: for fold reduction in OfurPBP3 affinity caused by Ser12, Asn52, Arg94, Asn113 variants: range over the four mutants vs wild type; for binding to all mutated OfurPBPs (in words): pH 7.4
Procedure: as §1, §2

Sequence of recombinant OfurPBP1 (E7CC99 entry or part of it): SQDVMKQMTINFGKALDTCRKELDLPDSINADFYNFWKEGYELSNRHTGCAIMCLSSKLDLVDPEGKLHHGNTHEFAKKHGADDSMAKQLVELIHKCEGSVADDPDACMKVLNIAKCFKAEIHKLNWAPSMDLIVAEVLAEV
Sequence of recombinant OfurPBP3 (E7CCA1 entry or part of it): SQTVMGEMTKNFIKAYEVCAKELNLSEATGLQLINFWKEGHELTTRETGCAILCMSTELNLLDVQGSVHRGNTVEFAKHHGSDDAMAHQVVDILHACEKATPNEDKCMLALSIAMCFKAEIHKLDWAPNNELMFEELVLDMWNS
Sequence of OfurPBP3 mutant M4: I94R (E7CCA1 entry or part of it L116R): as the sequence (E7CCA1 entry or part of it) above, with L94R counted along it
Sequence of OfurPBP3 mutant M1: I113N (E7CCA1 entry or part of it I135N): as the sequence (E7CCA1 entry or part of it) above, with I113N counted along it
Sequence of recombinant OfurPBP4 (E7CCA2 entry or part of it): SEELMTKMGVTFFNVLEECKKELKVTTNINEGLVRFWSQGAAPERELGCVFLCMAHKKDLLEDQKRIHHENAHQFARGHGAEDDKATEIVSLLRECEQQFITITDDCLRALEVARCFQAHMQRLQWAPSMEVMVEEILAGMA
Sequence of recombinant OfurPBP2 (E7CCA0 entry or part of it): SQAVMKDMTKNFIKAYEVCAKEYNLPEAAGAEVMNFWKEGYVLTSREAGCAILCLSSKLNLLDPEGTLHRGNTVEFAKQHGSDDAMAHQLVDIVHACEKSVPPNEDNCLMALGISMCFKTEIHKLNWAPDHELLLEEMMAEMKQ
Sequence of OfurPBP3 mutant M3: I52N (E7CCA1 entry or part of it I74N): as the sequence (E7CCA1 entry or part of it) above, with I52N counted along it
Sequence of OfurPBP3 mutant M2: F12S (E7CCA1 entry or part of it F34S): as the sequence (E7CCA1 entry or part of it) above, with F12S counted along it
Sequence of recombinant OfurPBP5 (E7CCA3 entry or part of it): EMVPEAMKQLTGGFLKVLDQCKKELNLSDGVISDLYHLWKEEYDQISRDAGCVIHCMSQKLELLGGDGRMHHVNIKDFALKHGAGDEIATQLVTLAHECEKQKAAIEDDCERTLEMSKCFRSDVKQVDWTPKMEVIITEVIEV

Compound | IC50 [1] [µM] | IC50 (recombinant OfurPBP3) [µM] | Ki (recombinant OfurPBP3) | IC50 (OfurPBP3 mutant M4: I94R) [µM] | IC50 (OfurPBP3 mutant M3: I52N) [µM] | binding to all five OfurPBPs (in words) [2] | IC50 (recombinant OfurPBP2) [µM] | Ki (recombinant OfurPBP2) [µM] | IC50 (recombinant OfurPBP4) [µM] | Ki (recombinant OfurPBP4) [µM] | IC50 (recombinant OfurPBP5) [µM] | Ki (recombinant OfurPBP5) [µM] | Ki (recombinant OfurPBP1) [µM] | IC50 (recombinant OfurPBP1) [µM] | IC50 (OfurPBP3 mutant M2: F12S) [µM] | further results
CC/C=C\CCCCCCCCCCOC(C)=O [Z11-14:OAc, (Z)-11-Tetradecenyl acetate] | > 6 | 3.27 ± 0.24 | 2.44 ± 0.18 µM | > 6 | > 6 | relatively high affinities | 3.49 ± 0.06 | 2.95 ± 0.05 | 1.18 ± 0.05 | 1.09 ± 0.05 | 3.64 ± 0.28 | 2.18 ± 0.17 | 4.08 ± 0.12 | 4.69 ± 0.14 | > 6 | fold reduction in affinity compared to wild-type OfurPBP3 [1]: ~8.25 fold
CC/C=C/CCCCCCCCCCOC(C)=O [E11-14:OAc, (E)-11-Tetradecenyl acetate] | > 6 | 2.64 ± 0.15 | 1.97 ± 0.11 µM | > 6 | > 6 | relatively high affinities | 3.28 ± 0.01 | 2.77 ± 0.01 | 2.31 ± 0.57 | 2.13 ± 0.53 | 1.9 ± 0.07 | 1.14 ± 0.04 | 4.61 ± 0.02 | 5.3 ± 0.02 | > 6 | 
CC(=O)C(C)O (centres unmarked) [3-hydroxy-butan-2-on] |  |  |  |  |  |  |  |  |  |  |  |  |  |  |  | Kd (PBPLma): 3.8 µM
C/C=C\CCCCCCCCCCCOC(C)=O [Z12-14:OAc, (Z)-12-Tetradecenyl acetate] | > 6 | 3.83 ± 0.06 | 2.86 ± 0.04 µM | > 6 | > 6 |  | 4.96 ± 0.23 | 4.19 ± 0.09 | > 6 |  | > 6 |  | 4.24 ± 0.82 | 4.88 ± 0.94 | > 6 | fold reduction in affinity compared to wild-type OfurPBP3 [1]: ~ 2 fold; fold reduction in OfurPBP3 affinity caused by Ser12, Asn52, Arg94, Asn113 variants [3]: 1.7- to 4.6 fold; binding to OfurPBP5 (in words) (recombinant OfurPBP5): weakly; fold reduction in affinity compared to wild-type OfurPBP3 (OfurPBP3 mutant M2: F12S; mutant F12S vs wildtype): ~ 2 fold
CC/C=C/CCCCCCCCCCO [E11-14:OH, (E)-11-Tetradecenol] | > 6 | > 6 | > 6 µM | > 6 | > 6 | weak or lack of detectable binding | > 6 |  | > 6 | > 6 | > 6 | > 6 | > 6 | > 6 | > 6 | binding to wildtype OfurPBP3 (in words) (recombinant OfurPBP3): failed to demonstrate this function; binding to all mutated OfurPBPs (in words) [3]: weak binding affinity
CCCC/C=C\CCCCCCCCO [Z9-14:OH, (Z)-9-Tetradecenol] | > 6 | > 6 | > 6 µM | > 6 | > 6 | weak or lack of detectable binding | > 6 | > 6 | > 6 | > 6 | > 6 | > 6 | > 6 | > 6 | > 6 | binding to I113N (in words) ([1]; pH 7.4): ability to bind; binding to wildtype OfurPBP3 (in words) (recombinant OfurPBP3): failed to demonstrate this function; binding to all mutated OfurPBPs (in words) [3]: weak binding affinity
C/C=C/CCCCCCCCCCCOC(C)=O [E12-14:OAc, (E)-12-Tetradecenyl acetate] | > 6 | 3.81 ± 0.02 | 2.85 µM and 2.84 µM | > 6 | > 6 |  | 4.88 ± 0.1 | 4.12 ± 0.08 | > 6 | > 6 | > 6 |  | 5.01 ± 0.14 | 5.77 ± 0.16 | > 6 | fold reduction in OfurPBP3 affinity caused by Ser12, Asn52, Arg94, Asn113 variants [3]: 1.7- to 4.6 fold; binding to OfurPBP4 (in words) (recombinant OfurPBP4): incapable of binding; also recorded: no detectable binding
CC(O)C(C)O (centres unmarked) [butane-2,3-diol] |  |  |  |  |  |  |  |  |  |  |  |  |  |  |  | Kd (PBPLma): 2.5 µM
